The target in this test is hPin1 (Protein interacting with NIMA (-kinase)) (Homo sapiens, UniProt Q13526). The test is described as follows: protease-coupled PPIase assay, hPin1. Format: biochemical.
Setting [1] is: hPin1 6 nM, substrate Ac-Ala-Ala-Ser(PO3H2)-Pro-Arg-pNA, trypsin, 35 mM HEPES pH 7.8, 6° C., read-out: Specificity of the inhibition with rotamases, Target T-1 (IC50 class).

pIC50: −log10 of the molar value. Where two headings read alike, the source gives them in different places. Where a SMILES comes first, the peptide text is derived from it. [ ]: non-standard residue; d: D form. The star is where a group is joined. X1 = O=C(O)c1cc(NC(=S)*)ccc1-c1c2ccc(=O)cc-2oc2cc(O)ccc12; Acetyl(2-(piperazin-1-yl)) = O=C(CN1CCNCC1)*; 2Nal = N[C@@H](Cc1ccc2ccccc2c1)C(=O)O; Bta = N[C@@H](Cc1csc2ccccc12)C(=O)O; Benzyl(3,4-Cl2) = Clc1ccc(C*)cc1Cl; Pip = O=C(O)[C@@H]1CCCCN1; CH2PO3H2 = O=P(O)(O)C*; Inp = O=C(O)C1CCNCC1; Ahx = NCCCCCC(=O)O; Mpa = O=C(O)CCS

The pIC50 is the IC50 on a negative log10 scale, so that one unit is a factor of ten.

hPin1 (Protein interacting with NIMA (-kinase)), sequence (Q13526 whole entry): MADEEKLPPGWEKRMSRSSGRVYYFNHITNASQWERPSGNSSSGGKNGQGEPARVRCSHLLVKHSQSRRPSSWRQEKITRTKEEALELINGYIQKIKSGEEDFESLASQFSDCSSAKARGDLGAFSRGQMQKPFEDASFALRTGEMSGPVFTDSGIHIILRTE

As for `NC(=O)[C@H](Cc1ccc2ccccc2c1)NC(=O)[C@@H]1CCCCN1C(=O)[C@H](CSCP(=O)(O)O)NC(=O)CCSCc1ccc(Cl)c(Cl)c1` [Compound 6, {3-[2-(1-Carbamoyl-2-naphthalen-2-yl-ethylcarbamoyl)-piperidin-1-yl]-2-[3-(3.4-dichloro-benzylsulfanyl)-propionylamino]-3-oxo-propylsulfanylmethyl}-phosphonic acid] ([Mpa](Benzyl(3,4-Cl2))C(CH2PO3H2)[Pip][2Nal]-NH2), the negative-log IC50 (pIC50) under setting [1] is 5.00 to 6.00.

Consider `NC(=O)[C@H](Cc1ccc2ccccc2c1)NC(=O)[C@@H]1CCCCN1C(=O)[C@H](CSCP(=O)(O)O)NC(=O)CCCC(=O)c1ccc(Cl)cc1` [Compound 7, {3-[2-(1-Carbamoyl-2-naphthalen-2-yl-ethylcarbamoyl)-piperidin-1-yl]-2-[5-(4-chloro-phenyl)-5-oxo-pentanoylamino]-3-oxo-propylsulfanylmethyl}-phosphonicacid], for which the pIC50 under setting [1] was > 6.00.

Take `NC(=O)[C@H](Cc1ccc2ccccc2c1)NC(=O)[C@@H]1CCCCN1C(=O)[C@H](CSCP(=O)(O)O)NC(=O)CCCCc1ccccc1` [Compound 8, [3-[2-(1-Carbamoyl-2-naphthalen-2-yl-ethylcarbamoyl)-piperidin-1-yl]-3-oxo-2-(5-phenyl-pentanoylamino)-propylsulfanylmethyl]-phosphonicacid]: the negative logarithm of the IC50 (pIC50) under setting [1] was > 6.00. On to `NC(=O)[C@H](Cc1ccc2ccccc2c1)NC(=O)[C@@H]1CCCCN1C(=O)[C@H](CSCP(=O)(O)O)NC(=O)[C@H](Cc1csc2ccccc12)NC(=O)CCCCCNC(=S)Nc1ccc(-c2c3ccc(=O)cc-3oc3cc(O)ccc23)c(C(=O)O)c1` [Compound 9] ({X1-Ahx}-[Bta]C(CH2PO3H2)[Pip][2Nal]-NH2), for which the negative-log IC50 (pIC50) is > 6.00. Still for that read-out and setting: the value for `NC(=O)[C@H](Cc1ccc2ccccc2c1)NC(=O)[C@@H]1CCCCN1C(=O)[C@H](CSCP(=O)(O)O)NC(=O)CC1NC(=O)NC1=O` (stereo partly drawn) [Compound 10, {3-[2-(1-Carbamoyl-2-naphthalen-2-yl-ethylcarbamoyl)-piperidin-1-yl]-2-[2-(2.5-dioxo-imidazolidin-4-yl)-acetylamino]-3-oxo-propylsulfanylmethyl}-phosphonicacid] was > 6.00. In the case of `NC(=O)[C@H](Cc1ccc2ccccc2c1)NC(=O)[C@@H]1CCCCN1C(=O)[C@H](CSCP(=O)(O)O)NC(=O)CC1CCCCC1` [Compound 11, [3-[2-(1-Carbamoyl-2-naphthalen-2-yl-ethylcarbamoyl)-piperidin-1-yl]-2-(2-cyclohexyl-acetylamino)-3-oxo-propylsulfanylmethyl]-phosphonic acid], the negative-log IC50 (pIC50) under setting [1] was 5.00 to 6.00.

In the case of `NC(=O)[C@H](Cc1ccc2ccccc2c1)NC(=O)[C@@H]1CCCCN1C(=O)[C@H](CSCP(=O)(O)O)NC(=O)C1CSC(=O)N1` (stereo partly drawn) [Compound 12, {3-[2-(1-Carbamoyl-2-naphthalen-2-yl-ethylcarbamoyl)-piperidin-1-yl]-3-oxo-2-[(2-oxo-thiazolidine-4-carbonyl)-amino]-propylsulfanylmethyl}-phosphonicacid], the pIC50 is > 6.00.

Regarding `NC(=O)[C@H](Cc1ccc2ccccc2c1)NC(=O)[C@@H]1CCCCN1C(=O)[C@H](CSCP(=O)(O)O)NC(=O)C1CSC(=O)N1C(=O)C1CSC(=O)N1` (stereo partly drawn) [Compound 13, (3-[2-(1-Carbamoyl-2-naphthalen-2-yl-ethylcarbamoyl)-piperidin-1-yl]-3-oxo-2-{[2-oxo-3-(2-oxo-thiazolidine-4-carbonyl)-thiazolidine-4-carbonyl]-amino}-propylsulfanylmethyl)-phosphonicacid], the pIC50 was > 6.00. In the case of `NC(=O)[C@H](Cc1ccc2ccccc2c1)NC(=O)[C@@H]1CCCCN1C(=O)[C@H](CSCP(=O)(O)O)NC(=O)c1cccc(Oc2ccccc2)c1` [Compound 14, [3-[2-(1-Carbamoyl-2-naphthalen-2-yl-ethylcarbamoyl)-piperidin-1-yl]-3-oxo-2-(3-phenoxy-benzoylamino)-propylsulfanylmethyl]-phosphonicacid], the pIC50 under setting [1] is > 6.00.

`NC(=O)[C@H](Cc1ccc2ccccc2c1)NC(=O)[C@@H]1CCCCN1C(=O)[C@H](CSCP(=O)(O)O)NC(=O)C1CCc2ccccc2C1` (stereo partly drawn) [Compound 15, {3-[2-(1-Carbamoyl-2-naphthalen-2-yl-ethylcarbamoyl)-piperidin-1-yl]-3-oxo-2-[(1.2.3.4-tetrahydro-naphthalene-2-carbonyl)-amino]-propylsulfanylmethyl}-phosphonicacid]: under setting [1], the negative-log IC50 (pIC50) was 5.00 to 6.00. In the case of `NC(=O)[C@H](Cc1ccc2ccccc2c1)NC(=O)[C@@H]1CCCCN1C(=O)[C@H](CSCP(=O)(O)O)NC(=O)CCc1cccs1` [Compound 16, [3-[2-(1-Carbamoyl-2-naphthalen-2-yl-ethylcarbamoyl)-piperidin-1-yl]-3-oxo-2-(3-thiophen-2-yl-propionylamino)-propylsulfanylmethyl]-phosphonicacid], the negative logarithm of the IC50 (pIC50) under setting [1] was 5.00 to 6.00. On the same count and under the same terms, then `NC(=O)[C@H](Cc1ccc2ccccc2c1)NC(=O)[C@@H]1CCCCN1C(=O)[C@H](CSCP(=O)(O)O)NC(=O)OCC1c2ccccc2-c2ccccc21` [Compound 17], with 5.00 to 6.00. In the case of `NC(=O)[C@H](Cc1ccc2ccccc2c1)NC(=O)[C@@H]1CCCCN1C(=O)[C@H](CSCP(=O)(O)O)NC(=O)[C@H](Cc1csc2ccccc12)NC(=O)C1CCNCC1` [Compound 18, {2-{3-Benzo[b]thiophen-3-yl-2-[(piperidine-4-carbonyl)-amino]-propionylamino}-3-[2-(1-carbamoyl-2-naphthalen-2-yl-ethylcarbamoyl)-piperidin-1-yl]-3-oxo-propylsulfanylmethyl}-phosphonic acid] (H-[Inp][Bta]C(CH2PO3H2)[Pip][2Nal]-NH2), the pIC50 is > 6.00.

For the compound `NC(=O)[C@H](Cc1ccc2ccccc2c1)NC(=O)[C@@H]1CCCCN1C(=O)[C@H](CSCP(=O)(O)O)NC(=O)[C@H](Cc1csc2ccccc12)NC(=O)CN1CCNCC1` [Compound 19, {2-[3-Benzo[b]thiophen-3-yl-2-(2-piperazin-1-yl-acetylamino)-propionylamino]-3-[2-(1-carbamoyl-2-naphthalen-2-yl-ethylcarbamoyl)-piperidin-1-yl]-3-oxo-propylsulfanylmethyl}-phosphonic acid] ({Acetyl(2-(piperazin-1-yl))}-[Bta]C(CH2PO3H2)[Pip][2Nal]-NH2), the pIC50 is > 6.00.

Take `NC(=O)[C@H](Cc1ccc2ccccc2c1)NC(=O)[C@@H]1CCCCN1C(=O)[C@H](CSCP(=O)(O)O)NC(=O)c1ccccc1` [Compound 20, {2-Benzoylamino-3-[2-(1-carbamoyl-2-naphthalen-2-yl-ethylcarbamoyl)-piperidin-1-yl]-3-oxo-propylsulfanylmethyl}-phosphonic acid]: the pIC50 under setting [1] is > 6.00.

As for `NC(=O)[C@H](Cc1ccc2ccccc2c1)NC(=O)[C@@H]1CCCCN1C(=O)[C@H](CSCP(=O)(O)O)NC(=O)Cc1ccccc1` [Compound 21, {3-[2-(1-Carbamoyl-2-naphthalen-2-yl-ethylcarbamoyl)-piperidin-1-yl]-3-oxo-2-phenylacetylamino-propylsulfanylmethyl}-phosphonicacid], the negative-log IC50 (pIC50) under setting [1] was > 6.00. The same measure, in the same setting: the value for `NC(=O)[C@H](Cc1ccc2ccccc2c1)NC(=O)[C@@H]1CCCCN1C(=O)[C@H](CSCP(=O)(O)O)NC(=O)CCc1ccccc1` [Compound 22, [3-[2-(1-Carbamoyl-2-naphthalen-2-yl-ethylcarbamoyl)-piperidin-1-yl]-3-oxo-2-(3-phenyl-propionylamino)-propylsulfanylmethyl]-phosphonicacid] was > 6.00; that for `NC(=O)[C@H](Cc1ccc2ccccc2c1)NC(=O)[C@@H]1CCCCN1C(=O)[C@H](CSCP(=O)(O)O)NC(=O)CCCc1ccccc1` [Compound 23, [3-[2-(1-Carbamoyl-2-naphthalen-2-yl-ethylcarbamoyl)-piperidin-1-yl]-3-oxo-2-(4-phenyl-butyrylamino)-propylsulfanylmethyl]-phosphonicacid] was > 6.00. The same measure, in the same setting: then `NC(=O)[C@H](Cc1ccc2ccccc2c1)NC(=O)[C@@H]1CCCCN1C(=O)[C@H](CSCP(=O)(O)O)NC(=O)Cc1ccc(-c2ccccc2)cc1` [Compound 24, {2-(2-Biphenyl-4-yl-acetylamino)-3-[2-(1-carbamoyl-2-naphthalen-2-yl-ethylcarbamoyl)-piperidin-1-yl]-3-oxo-propylsulfanylmethyl}-phosphonic acid], with > 6.00; and `CC(=O)N[C@@H](Cc1csc2ccccc12)C(=O)N[C@@H](CSCP(=O)(O)O)CN1CCCC[C@H]1C(=O)N[C@@H](Cc1ccc2ccccc2c1)C(N)=O` [Compound 25, {2-(2-Acetylamino-3-benzo[b]thiophen-3-yl-propionylamino)-3-[2-(1-carbamoyl-2-naphthalen-2-yl-ethylcarbamoyl)-piperidin-1-yl]-propylsulfanylmethyl}-phosphonicacid], with > 6.00.

`CC(=O)N[C@@H](Cc1csc2ccccc12)C(=O)N[C@@H](CSCP(=O)(O)O)C(=O)N(C)N(C)C(=O)N[C@@H](Cc1ccc2ccccc2c1)C(N)=O` [Compound 26, Ac-Bta-Cys(CH2—P(O)(OH)2)-NMeazaAla-2Nal-NH2]: the pIC50 under setting [1] is > 6.00. Same read-out and setting: the value for `CC(=O)N[C@@H](Cc1csc2ccccc12)C(=O)N[C@@H](CSCP(=O)(O)O)C(=O)N(C)NC(=O)N[C@@H](Cc1ccc2ccccc2c1)C(N)=O` [Compound 27, Ac-Bta-Cys(CH2—P(O)(OH)2)-NMeazaGly-2Nal-NH2] was > 6.00; that for `NC(=O)[C@H](Cc1ccc2ccccc2c1)NC(=O)[C@@H]1CCCCN1C(=O)CSCP(=O)(O)O` [Compound 28, {2-[2-(1-Carbamoyl-2-naphthalen-2-yl-ethylcarbamoyl)-piperidin-1-yl]-2-oxo-ethylsulfanylmethyl}-phosphonic acid] was > 6.00. The same measure, in the same setting: then `NC(=O)[C@H](Cc1ccc2ccccc2c1)NC(=O)[C@@H]1CCCCN1C(=O)CCSCP(=O)(O)O` [Compound 29, {3-[2-(1-Carbamoyl-2-naphthalen-2-yl-ethylcarbamoyl)-piperidin-1-yl]-3-oxo-propylsulfanylmethyl}-phosphonic acid], with > 6.00.

(Values after patent US20080194524A1, “Compounds For the Inhibition of Undesired Cell Proliferation and Use Thereof” (JERINI AG, priority 2003, published 2008).)
